Calls of active or inactive are those of the source. No cut-off for these calls is given here.

In test [1] the target is T1, Protein cereblon/Dual specificity tyrosine-phosphorylation-regulated kinase 1A (Homo sapiens, UniProt Q13627+Q96SW2). Put plainly: Competitive binding affinity to CRBN/DYRK1A (unknown origin) assessed as dissociation constant. Format: protein assay.
Test [2] addresses T1, Protein cereblon/Dual specificity tyrosine-phosphorylation-regulated kinase 1A. Put plainly: PROTAC activity at CRBN/HibiT-tagged DYRK1A in Flp-In-T-REx-293 cells assessed as induction of degradation of DYRK1A by measuring maximum efficacy at 0.3 uM measured after 24 hrs by NanoBiT luciferase assay relative to control. Format: cell-based.
Test [3] concerns the target Protein cereblon/Dual specificity tyrosine-phosphorylation-regulated kinase 1B (Homo sapiens, UniProt Q96SW2+Q9Y463). Put plainly: Competitive binding affinity to CRBN/DYRK1B (unknown origin) assessed as dissociation constant. The class given is protein assay.
The target of test [4] is T2, Protein cereblon/Dual specificity tyrosine-phosphorylation-regulated kinase 1B (Homo sapiens) (UniProt Q9Y463+Q96SW2). Put plainly: PROTAC activity at CRBN/HibiT-tagged DYRK1B in Flp-In-T-REx-293 cells assessed as induction of degradation of DYRK1B by measuring maximum efficacy at 0.3 uM measured after 24 hrs by NanoBiT luciferase assay relative to control. The class given is cell-based.

In test [5] the target is von Hippel-Lindau disease tumor suppressor/Dual specificity tyrosine-phosphorylation-regulated kinase 1B (Homo sapiens) (UniProt Q9Y463+P40337). Put plainly: PROTAC activity at VHL/HibiT-tagged DYRK1B in Flp-In-T-REx-293 cells assessed as induction of degradation of DYRK1B by measuring maximum efficacy at 0.3 uM measured after 24 hrs by NanoBiT luciferase assay relative to control. Format: cell-based.

The target in test [6] is von Hippel-Lindau disease tumor suppressor/Dual specificity tyrosine-phosphorylation-regulated kinase 1A (Homo sapiens, UniProt P40337+Q13627). Put plainly: Competitive binding affinity to VHL/DYRK1A (unknown origin) assessed as dissociation constant by competition binding assay. The class given is protein assay.
The target of test [7] is von Hippel-Lindau disease tumor suppressor/Dual specificity tyrosine-phosphorylation-regulated kinase 1A (Homo sapiens) (UniProt Q13627+P40337). Put plainly: PROTAC activity at VHL/HibiT-tagged DYRK1A in Flp-In-T-REx-293 cells assessed as induction of degradation of DYRK1A by measuring maximum efficacy at 0.3 uM measured after 24 hrs by NanoBiT luciferase assay relative to control. Format: cell-based.

Test [8] deals with von Hippel-Lindau disease tumor suppressor/Dual specificity tyrosine-phosphorylation-regulated kinase 1B (Homo sapiens, UniProt P40337+Q9Y463). Put plainly: Competitive binding affinity to VHL/DYRK1B (unknown origin) assessed as dissociation constant. The class given is protein assay.
In test [9] the target is T1, Protein cereblon/Dual specificity tyrosine-phosphorylation-regulated kinase 1A. Put plainly: PROTAC activity at CRBN/HibiT-tagged DYRK1A in Flp-In-T-REx-293 cells assessed as induction of degradation of DYRK1A by measuring maximum efficacy at 1 uM measured after 24 hrs by NanoBiT luciferase assay relative to control. The class given is cell-based.
Test [10] deals with T2, Protein cereblon/Dual specificity tyrosine-phosphorylation-regulated kinase 1B (Homo sapiens). Put plainly: PROTAC activity at CRBN/HibiT-tagged DYRK1B in Flp-In-T-REx-293 cells assessed as induction of degradation of DYRK1B by measuring maximum efficacy at 1 uM measured after 24 hrs by NanoBiT luciferase assay relative to control. Format: cell-based.
Test [11] concerns the target T1, Protein cereblon/Dual specificity tyrosine-phosphorylation-regulated kinase 1A. Put plainly: PROTAC activity at CRBN/HibiT-tagged DYRK1A in Flp-In-T-REx-293 cells assessed as induction of degradation of DYRK1A at 100 nM by measured after 24 hrs by NanoBiT luciferase assay. Format: cell-based.
For test [12] the target is unchanged. Put plainly: PROTAC activity at CRBN/HibiT-tagged DYRK1A in Flp-In-T-REx-293 cells assessed as induction of degradation of DYRK1A at 1 uM by measured after 24 hrs by NanoBiT luciferase assay. Format: cell-based.
Test [13] shares this target. Put plainly: PROTAC activity at CRBN/DYRK1A in HEK293 cells expressing GFP-SF3B1 assessed as inhibition of SF3B1 phosphorylation at 10 to 100 nM measured for 24 hrs by Western blot analysis. The class given is cell-based. The conditions noted are these: dose 10-100 nM. Background: Immunoblotting shows a protein as a band on a membrane.

One may read the Kd as the constant that tells how readily two partners part at equilibrium. Broadly, the Emax is the maximal effect, on the per cent scale that the assay sets. As for `Cc1nc2ccc(-c3ccnc(N)c3)nc2n1-c1ccc(N2CCN(CCOCCNc3cccc4c3C(=O)N(C3CCC(=O)NC3=O)C4=O)CC2)c(F)c1` (centres undefined), the equilibrium dissociation constant (Kd) in test [1] came out at 1.4 nM; in [3] it was 2.4 nM. Besides, the Emax amounted to 40% in test [2] and 0% in test [4].
As for `Cc1ncsc1-c1ccc(CNC(=O)[C@@H]2C[C@@H](O)CN2C(=O)[C@@H](NC(=O)CCOCCOCCOCCN2CCN(c3ccc(-n4c(C)nc5ccc(-c6ccnc(N)c6)nc54)cc3F)CC2)C(C)(C)C)cc1`, the Emax in [5] and in test [7] was 0% each time. Further, the Kd was found to be 1.3 nM in test [6] and 3.6 nM in test [8].
For the compound `Cc1ncsc1-c1ccc(CNC(=O)[C@@H]2C[C@@H](O)CN2C(=O)[C@@H](NC(=O)CCOCCN2CCN(c3ccc(-n4c(C)nc5ccc(-c6ccnc(N)c6)nc54)cc3F)CC2)C(C)(C)C)cc1`, the values for the Emax in [5] and in [7] were 0% and 11%, respectively. Besides, the Kd in [6] amounted to 3.4 nM; in test [8], 5.5 nM.
Turning to `Cc1nc2ccc(-c3ccnc(N)c3)nc2n1-c1ccc(N2CCN(CCOCCOCCOCCOCCNc3cc4c(cc3F)C(=O)N(C3CCC(=O)NC3=O)C4=O)CC2)c(F)c1` (centres undefined), the values for the equilibrium dissociation constant (Kd) in test [1] and in [3] were 13 nM and 43 nM, respectively. Further, the figures for the Emax in test [9] and in [10] were 80% and 58%, respectively.
Consider `Cc1nc2ccc(-c3ccnc(N)c3)nc2n1-c1ccc(N2CCN(CCOCCOCCOCCNc3cccc4c3C(=O)N(C3CCC(=O)NC3=O)C4=O)CC2)c(F)c1` (centres undefined), for which the figures for the Kd in test [1] and in test [3] were 2.3 nM and 3.4 nM, respectively. Further, the Emax in test [2] was determined as 60%; in test [4], 28%.
`Cc1nc2ccc(-c3ccnc(N)c3)nc2n1-c1ccc(N2CCN(CCOCCOCCOCCC(=O)NC3CN(c4ccc5c(c4)C(=O)N(C4CCC(=O)NC4=O)C5=O)C3)CC2)c(F)c1` (centres undefined): the Kd in test [1] worked out at 3.2 nM. Further, the Emax in [9] was found to be 27%; in test [10], 0%.
For the compound `Cc1nc2ccc(-c3ccnc(N)c3)nc2n1-c1ccc(N2CCN(CCOCCOCCNc3cccc4c3C(=O)N(C3CCC(=O)NC3=O)C4=O)CC2)c(F)c1` (centres undefined), the Kd in [1] was 1.4 nM; in test [3], 3.5 nM. Moreover, the Emax in test [2] worked out at 52%; in [4], 25%.
For the compound `Cc1ncsc1-c1ccc(CNC(=O)[C@@H]2C[C@@H](O)CN2C(=O)[C@@H](NC(=O)CCOCCOCCOCCOCCN2CCN(c3ccc(-n4c(C)nc5ccc(-c6ccnc(N)c6)nc54)cc3F)CC2)C(C)(C)C)cc1`, the Emax in [5] and in [7] was 0% throughout. The Kd in [6] worked out at 1.4 nM; in test [8], 6.6 nM.
In the case of `Cc1nc2ccc(-c3ccnc(N)c3)nc2n1-c1ccc(N2CCN(C(=O)CCN3CCN(Cc4ccc(CNc5cccc6c5CN(C5CCC(=O)NC5=O)C6=O)cc4)CC3)CC2)c(F)c1` (centres undefined), the Kd in test [1] is 20 nM; in test [3] it was 47 nM. Besides, the figures for the Emax in test [9] and in test [10] were 24% and 14%, respectively.
Turning to `Cc1nc2ccc(-c3ccnc(N)c3)nc2n1-c1ccc(N2CCN(C(=O)CN3CCC(CC(=O)N4CCC(n5cc(CNc6cccc7c6C(=O)N(C6CCC(=O)NC6=O)C7=O)cn5)CC4)CC3)CC2)c(F)c1` (centres undefined), the Kd in test [1] was found to be 0.64 nM. For the same compound, the figures for the maximum response (Emax) in test [9] and in [10] were 78% and 65%, respectively.
With `Cc1ncsc1-c1ccc(CNC(=O)[C@@H]2C[C@@H](O)CN2C(=O)[C@@H](NC(=O)CCOCCOCCN2CCN(c3ccc(-n4c(C)nc5ccc(-c6ccnc(N)c6)nc54)cc3F)CC2)C(C)(C)C)cc1`, the Emax in test [5] is 2%; in test [7], 5%. The Kd in test [6] came out at 2.2 nM; in [8] it was 6.9 nM.
With `Cc1nc2ccc(-c3ccnc(N)c3)nc2n1-c1ccc(N2CCN(C(=O)CCCN3CCN(Cc4ccc(CNc5cccc6c5CN(C5CCC(=O)NC5=O)C6=O)cc4)CC3)CC2)c(F)c1` (centres undefined), the Kd is 1.7 nM in test [1] and 5.2 nM in test [3]. Also, the results for the Emax in test [9] and in test [10] were 75% and 54%, respectively.
Consider `Cc1nc2ccc(-c3ccnc(N)c3)nc2n1-c1ccc(N2CCN(CC#Cc3ccc(N4CCC(C(=O)N5CCC(n6cc(CNc7cccc8c7C(=O)N(C7CCC(=O)N(C)C7=O)C8=O)cn6)CC5)CC4)nc3)CC2)c(F)c1` (centres undefined), for which, in test [11], the result was inactive. Moreover, the Activity entry in test [12] was “Active; Compound Showed Modest Degradation”; in test [13], “Active; Compound Partially Suppress The Phosphorylation”.
With `Cc1nc2ccc(-c3ccnc(N)c3)nc2n1-c1ccc(N2CCN(CCOCCOCCOCCC(=O)N3CCN(c4ccc5c(c4)C(=O)N(C4CCC(=O)NC4=O)C5=O)CC3)CC2)c(F)c1` (centres undefined), in test [1], the Kd was 5.9 nM. The Emax in [9] was determined as 9%; in test [10], 0%.
In the case of `Cc1nc2ccc(-c3ccnc(N)c3)nc2n1-c1ccc(N2CCN(CCOCCOCCOCCC(=O)N3CCN(Cc4ccc(CNc5cccc6c5CN(C5CCC(=O)NC5=O)C6=O)cc4)CC3)CC2)c(F)c1` (centres undefined), the Kd in test [1] turned out to be 5.6 nM; in test [3] it was 16 nM. Also, the Emax in [9] and in test [10] was 0% throughout.
In the case of `Cc1nc2ccc(-c3ccnc(N)c3)nc2n1-c1ccc(N2CCN(C(=O)CCCN3CCC(n4cc(CNc5cccc6c5C(=O)N(C5CCC(=O)NC5=O)C6=O)cn4)CC3)CC2)c(F)c1` (centres undefined), the Kd in test [1] was 2.8 nM; in test [3], 5.1 nM. Besides, the Emax in test [9] was 79%; in [10], 63%.
Take `Cc1nc2ccc(-c3ccnc(N)c3)nc2n1-c1ccc(N2CCN(C(=O)CCCCN3CCN(Cc4ccc(CNc5cccc6c5CN(C5CCC(=O)NC5=O)C6=O)cc4)CC3)CC2)c(F)c1` (centres undefined): the values for the Kd in [1] and in test [3] were 3.3 nM and 8.4 nM, respectively. For the same compound, the Emax in test [9] is 63%; in test [10], 38%.

These data come from ChEMBL document CHEMBL6120970, “Discovery and Functional Characterization of a Potent, Selective, and Metabolically Stable PROTAC of the Protein Kinases DYRK1A and DYRK1B” (J Med Chem, 2024).
